Measured values from publication PMC10938783, “A novel pan-PI3K inhibitor KTC1101 synergizes with anti-PD-1 therapy by targeting tumor suppression and immune activation” (Molecular Cancer, 2024).
Where “and” joins values, the source holds several entries; their conditions need not be identical. Equal values may be shown once.

System: B16 cells gene expression
Assay: RNA-Seq (DEGs, GSEA, heatmaps) of B16 cells
Settings: B16 cells, replicates KTC1-KTC3

COc1cc(N)cc2c1nc(C(F)F)n2-c1nc(N2CCCOCC2)nc(N2CCOCC2)n1 [KTC]
Adam19 gene expression (RNA-Seq) (KTC 0.04μM): 11.78 and 12.44 and 13.05 | Axl gene expression (RNA-Seq) (KTC 0.04μM): 4.83 and 4.54 and 4.92 | Btg1 gene expression (RNA-Seq) (KTC 0.04μM): 6.87 and 7.6 and 7.15 | Capg gene expression (RNA-Seq) (KTC 0.04μM): 24.95 and 22.04 and 23.37 | Ccl5 gene expression (RNA-Seq) (KTC 0.04μM): 9.15 and 9.99 and 10.19 | Ccn1 gene expression (RNA-Seq) (KTC 0.04μM): 37.5 and 41.45 and 42.8 | Ccnd1 gene expression (RNA-Seq) (KTC 0.04μM): 70.38 and 71.17 and 69.7 | Cx3cl1 gene expression (RNA-Seq) (KTC 0.04μM): 1.55 and 2.17 and 1.72 | Cxcl10 gene expression (RNA-Seq) (KTC 0.04μM): 16.76 and 15.67 and 17.26 | Dusp1 gene expression (RNA-Seq) (KTC 0.04μM): 4.08 and 4.86 and 3.75 | Dusp4 gene expression (RNA-Seq) (KTC 0.04μM): 48.69 and 51.07 and 50.43 | Egr1 gene expression (RNA-Seq) (KTC 0.04μM): 0.45 and 0.83 and 0.94 | Etv4 gene expression (RNA-Seq) (KTC 0.04μM): 1.8 and 1.31 and 1.55 | Fos gene expression (RNA-Seq) (KTC 0.04μM): 5.98 and 9.07 and 3.6 | Fosb gene expression (RNA-Seq) (KTC 0.04μM): 5.83 and 8.56 and 1.19 | Hes1 gene expression (RNA-Seq) (KTC 0.04μM): 2.93 and 3.6 and 4.11 | Irak2 gene expression (RNA-Seq) (KTC 0.04μM): 4.46 and 3.71 and 4.84 | Irf6 gene expression (RNA-Seq) (KTC 0.04μM): 0.75 and 0.73 (2×) | Irs2 gene expression (RNA-Seq) (KTC 0.04μM): 4.62 and 4.54 and 4.48 | Jag1 gene expression (RNA-Seq) (KTC 0.04μM): 3.9 and 3.6 and 3.87 | Junb gene expression (RNA-Seq) (KTC 0.04μM): 5.41 and 5.91 and 6.31 | Klf2 gene expression (RNA-Seq) (KTC 0.04μM): 2.37 and 2.53 and 1.84 | Klf9 gene expression (RNA-Seq) (KTC 0.04μM): 1.42 and 1.56 and 1.52 | Maff gene expression (RNA-Seq) (KTC 0.04μM): 1.99 and 1.97 and 1.81 | Myc gene expression (RNA-Seq) (KTC 0.04μM): 51.1 and 50.03 and 54.71 | Nfkb2 gene expression (RNA-Seq) (KTC 0.04μM): 19.99 and 21.56 and 22.54 | Nfkbia gene expression (RNA-Seq) (KTC 0.04μM): 16.08 and 16.06 and 15.47 | Nfkbie gene expression (RNA-Seq) (KTC 0.04μM): 12.93 and 13.17 and 14.09 | Nr4a1 gene expression (RNA-Seq) (KTC 0.04μM): 27.6 and 28.38 and 30.22 | Nr4a3 gene expression (RNA-Seq) (KTC 0.04μM): 13.97 and 13.13 and 12.62 | P2rx7 gene expression (RNA-Seq) (KTC 0.04μM): 9.9 and 10.96 and 10.37 | Pde4b gene expression (RNA-Seq) (KTC 0.04μM): 7.81 and 8.81 and 8.51 | Pmepa1 gene expression (RNA-Seq) (KTC 0.04μM): 0.72 and 0.75 and 0.79 | Pnrc1 gene expression (RNA-Seq) (KTC 0.04μM): 23.22 and 24.79 and 24.57 | Relb gene expression (RNA-Seq) (KTC 0.04μM): 7.12 and 7.46 and 7.78 | Rgs16 gene expression (RNA-Seq) (KTC 0.04μM): 6.49 and 5.97 and 6.54 | Rhob gene expression (RNA-Seq) (KTC 0.04μM): 30.37 and 32.79 and 32.66 | Serpine1 gene expression (RNA-Seq) (KTC 0.04μM): 0.22 and 0.24 and 0.32 | Sgk1 gene expression (RNA-Seq) (KTC 0.04μM): 3.46 and 3.48 and 3.41 | Sgms2 gene expression (RNA-Seq) (KTC 0.04μM): 0.2 and 0.16 and 0.24 | Spred2 gene expression (RNA-Seq) (KTC 0.04μM): 15.32 and 15.07 and 16.22 | Spry4 gene expression (RNA-Seq) (KTC 0.04μM): 1.16 and 1.17 and 1.15 | Tiparp gene expression (RNA-Seq) (KTC 0.04μM): 15.99 and 15.69 and 16.6 | Zc3h12a gene expression (RNA-Seq) (KTC 0.04μM): 2.43 and 2.61 and 1.93 | Zfp36 gene expression (RNA-Seq) (KTC 0.04μM): 3.85 and 4.04 and 4.57 | Adam19 gene expression (RNA-Seq) (KTC 0.2μM): 19.27 and 19.65 and 19.87 | Adcy1 gene expression (RNA-Seq) (KTC 0.2μM): 0.05 (2×) and 0.09 | Adcy6 gene expression (RNA-Seq) (KTC 0.2μM): 15.71 and 16.34 and 15.68 | Adcy7 gene expression (RNA-Seq) (KTC 0.2μM): 24.18 and 23.98 and 24.16 | Ahr gene expression (RNA-Seq) (KTC 0.2μM): 3.75 and 3.9 and 4.26 | Arrb1 gene expression (RNA-Seq) (KTC 0.2μM): 7.32 and 7.58 and 7.1 | Axl gene expression (RNA-Seq) (KTC 0.2μM): 19.13 and 18.11 and 18.34 | Bcl3 gene expression (RNA-Seq) (KTC 0.2μM): 1.26 and 1.46 and 1.81 | Birc3 gene expression (RNA-Seq) (KTC 0.2μM): 0.82 and 0.69 and 1.02 | Btg1 gene expression (RNA-Seq) (KTC 0.2μM): 10.22 and 9.53 and 9.68 | Capg gene expression (RNA-Seq) (KTC 0.2μM): 39.95 and 40.18 and 41.23 | Ccl5 gene expression (RNA-Seq) (KTC 0.2μM): 26.92 and 30.51 and 26.01 | Ccl6 gene expression (RNA-Seq) (KTC 0.2μM): 0.22 (2×) and 0.39 | Ccl9 gene expression (RNA-Seq) (KTC 0.2μM): 0.11 and 0.07 and 0.02 | Ccl27b gene expression (RNA-Seq) (KTC 0.2μM): 0.37 and 0.93 and 0.69 | Ccn1 gene expression (RNA-Seq) (KTC 0.2μM): 43.03 and 43.88 and 47.2 | Ccnd1 gene expression (RNA-Seq) (KTC 0.2μM): 93.08 and 94.99 and 95.21 | Cish gene expression (RNA-Seq) (KTC 0.2μM): 2.04 and 1.79 and 1.74 | Ckap4 gene expression (RNA-Seq) (KTC 0.2μM): 13.31 and 12.58 and 12.66 | Cx3cl1 gene expression (RNA-Seq) (KTC 0.2μM): 1.83 and 1.75 and 1.74 | Cxcl1 gene expression (RNA-Seq) (KTC 0.2μM): 0.29 and 0.77 and 0.5 | Cxcl10 gene expression (RNA-Seq) (KTC 0.2μM): 23.61 and 22.04 and 22.99 | Cxcr3 gene expression (RNA-Seq) (KTC 0.2μM): 1.95 and 1.7 and 1.8 | Dcps gene expression (RNA-Seq) (KTC 0.2μM): 124.78 and 129.34 and 129.92 | Dusp1 gene expression (RNA-Seq) (KTC 0.2μM): 6.18 and 4.88 and 5.31 | Dusp4 gene expression (RNA-Seq) (KTC 0.2μM): 74.48 and 66.32 and 71.85 | Egr1 gene expression (RNA-Seq) (KTC 0.2μM): 2.42 and 2.39 and 2.31 | Egr2 gene expression (RNA-Seq) (KTC 0.2μM): 0.12 and 0.14 and 0.22 | Etfbkmt gene expression (RNA-Seq) (KTC 0.2μM): 13.18 and 12.47 and 12.84 | Etv4 gene expression (RNA-Seq) (KTC 0.2μM): 2.57 and 3.09 and 3.52 | Fos gene expression (RNA-Seq) (KTC 0.2μM): 6.53 and 3.78 and 2.09 | Fosb gene expression (RNA-Seq) (KTC 0.2μM): 6.21 and 3 and 0.33 | Gnb4 gene expression (RNA-Seq) (KTC 0.2μM): 8.23 and 8.94 and 8.73 | Gng11 gene expression (RNA-Seq) (KTC 0.2μM): 47.07 and 50.78 and 52.97 | Gsto1 gene expression (RNA-Seq) (KTC 0.2μM): 56.3 and 52.98 and 58.2 | Hes1 gene expression (RNA-Seq) (KTC 0.2μM): 4.87 and 4.41 and 5.8 | Ifitm3 gene expression (RNA-Seq) (KTC 0.2μM): 48.58 and 48.45 and 50.69 | Igf1r gene expression (RNA-Seq) (KTC 0.2μM): 6.64 and 6.31 and 6.49 | Ikzf2 gene expression (RNA-Seq) (KTC 0.2μM): 0.58 and 0.65 and 0.83 | Il3ra gene expression (RNA-Seq) (KTC 0.2μM): 8.13 and 8.28 and 7.91 | Il4ra gene expression (RNA-Seq) (KTC 0.2μM): 0.35 and 0.33 and 0.39 | Il15ra gene expression (RNA-Seq) (KTC 0.2μM): 0.8 and 0.77 and 0.98 | Il18 gene expression (RNA-Seq) (KTC 0.2μM): 2.98 and 3.73 and 3.81 | Irak2 gene expression (RNA-Seq) (KTC 0.2μM): 6.66 and 7.18 and 6.91 | Irf6 gene expression (RNA-Seq) (KTC 0.2μM): 0.95 and 0.94 and 0.76 | Irs2 gene expression (RNA-Seq) (KTC 0.2μM): 6.99 and 6.74 and 7.06 | Jag1 gene expression (RNA-Seq) (KTC 0.2μM): 5.14 and 5.2 and 5.32 | Junb gene expression (RNA-Seq) (KTC 0.2μM): 9.95 and 9.21 and 10.31 | Klf2 gene expression (RNA-Seq) (KTC 0.2μM): 5.92 and 4.44 and 4.22 | Klf4 gene expression (RNA-Seq) (KTC 0.2μM): 1.74 and 0.87 and 0.94 | Klf9 gene expression (RNA-Seq) (KTC 0.2μM): 2.21 and 2.14 and 2.03 | Lif gene expression (RNA-Seq) (KTC 0.2μM): 0.18 and 0.1 and 0.2 | Lrrc8c gene expression (RNA-Seq) (KTC 0.2μM): 9.54 and 9.91 and 9.16 | Maff gene expression (RNA-Seq) (KTC 0.2μM): 8.01 and 8.27 and 7.95 | Myc gene expression (RNA-Seq) (KTC 0.2μM): 80.51 and 79.74 and 85.17 | Nfkb2 gene expression (RNA-Seq) (KTC 0.2μM): 29.06 and 30.4 and 30.6 | Nfkbia gene expression (RNA-Seq) (KTC 0.2μM): 28.35 and 27.12 and 24.65 | Nfkbie gene expression (RNA-Seq) (KTC 0.2μM): 23.83 and 25.35 and 25 | Nr4a1 gene expression (RNA-Seq) (KTC 0.2μM): 46.25 and 44.44 and 46.02 | Nr4a3 gene expression (RNA-Seq) (KTC 0.2μM): 17.79 and 16.5 and 17.39 | P2rx7 gene expression (RNA-Seq) (KTC 0.2μM): 16.97 and 18.85 and 16.56 | Pde4b gene expression (RNA-Seq) (KTC 0.2μM): 11.38 and 11.69 and 11.76 | Pim1 gene expression (RNA-Seq) (KTC 0.2μM): 7.35 and 8.15 and 8.02 | Plcb2 gene expression (RNA-Seq) (KTC 0.2μM): 0.43 and 0.62 and 0.67 | Plcg2 gene expression (RNA-Seq) (KTC 0.2μM): 1.3 and 1.71 and 1.76 | Pmepa1 gene expression (RNA-Seq) (KTC 0.2μM): 1.45 and 1.08 and 1.06 | Pnrc1 gene expression (RNA-Seq) (KTC 0.2μM): 33.48 and 28.22 and 29.95 | Prnp gene expression (RNA-Seq) (KTC 0.2μM): 1380.34 and 1358.49 and 1354.58 | Ptk2b gene expression (RNA-Seq) (KTC 0.2μM): 2.37 and 2.08 and 2.03 | Relb gene expression (RNA-Seq) (KTC 0.2μM): 11.53 and 13.05 and 11.17 | Rgs16 gene expression (RNA-Seq) (KTC 0.2μM): 9.71 and 10 and 9.9 | Rhob gene expression (RNA-Seq) (KTC 0.2μM): 60.96 and 58.66 and 58.57 | Serpine1 gene expression (RNA-Seq) (KTC 0.2μM): 1.09 and 0.86 and 1.2 | Shc3 gene expression (RNA-Seq) (KTC 0.2μM): 0.37 and 0.31 and 0.25 | Smad3 gene expression (RNA-Seq) (KTC 0.2μM): 20.9 and 21.03 and 22.24 | Smpdl3a gene expression (RNA-Seq) (KTC 0.2μM): 36.94 and 40.39 and 39.45 | Spred2 gene expression (RNA-Seq) (KTC 0.2μM): 19.27 and 21.51 and 19.83 | Spry4 gene expression (RNA-Seq) (KTC 0.2μM): 2.44 and 2.59 and 2.62 | Src gene expression (RNA-Seq) (KTC 0.2μM): 43.09 and 43.5 and 41.98 | St3gal4 gene expression (RNA-Seq) (KTC 0.2μM): 75.01 and 74.93 and 70.63 | Syt11 gene expression (RNA-Seq) (KTC 0.2μM): 7.36 and 7.81 and 7.47 | Tlr2 gene expression (RNA-Seq) (KTC 0.2μM): 0.22 and 0.34 and 0.25 | Tlr7 gene expression (RNA-Seq) (KTC 0.2μM): 0.79 and 0.75 and 0.7 | Tnfaip3 gene expression (RNA-Seq) (KTC 0.2μM): 0.93 and 0.95 and 0.79 | Zc3h12a gene expression (RNA-Seq) (KTC 0.2μM): 3.34 and 3.16 and 3.73
